The values below come from patent publication US20240209028A1, “CNP COMPOUNDS” (priority 2022, published 2024).

Each structure is given as a SMILES string. Starred links: 1 amine or outer side, 2 acyl side, 3 side chain; linkers in the order of their positions; H or OH if unused. Positions of bridges follow the written chain, without caps; N, C: chain ends. Residues, ends and D or L forms follow the SMILES beside them. *: point of attachment. C18 diacid = O=C(O)CCCCCCCCCCCCCCCCC(=O)*; γGlu = O=C(O)[C@H](CCC(=O)[*:2])N[*:1]; AEEA = NCCOCCOCC(=O)O

Series [1] in a line: Thioflavin T (ThT) assay: lagtime and peptide recovery. Particulars: assay terminated after 45 hours; for LagTime (h) at pH 6.5: ThT assay, pH 6.5, 37° C. Type of series: physicochemical. The text has this:
The ThT assay was used to evaluate physical stability of the CNP compounds and their suitability for liquid formulation. Low physical stability of peptides may lead to amyloid fibril formation, which is observed as well-ordered, thread-like macromolecular structures in the sample eventually resulting in gel formation. This has traditionally been tested by visual inspection of the sample. However, that kind of measurement is very subjective and depending on the observer. Therefore, the application of a small molecule indicator probe is much more advantageous. Thioflavin T (ThT) is such a probe and has a distinct fluorescence signature when binding to fibrils [Naiki et al. (1989) Anal. Biochem. 177, 244-249; LeVine (1999) Methods. Enzymol. […], 274-284].
Procedure: Thioflavin T was added to the supernatant samples from Example 5 (pH 4.0 and 6.5) using an aqueous ThT stock solution to a final concentration of about 1 μM in the samples. Sample aliquots of 150 μL were placed in a 96 well microtiter plate (Packard OptiPlate™-96, white polystyrene). Usually, two to three replicas of each sample were applied to the plate. The plate was sealed and placed in a fluorescence plate reader (Fluoroskan Ascent FL) and incubated at 37° C. with orbital shaking (960 rpm; 1 mm amplitude). Fluorescence measurements were performed every 20 minutes using excitation through a 444 nm filter and measurement of emission through a 485 nm filter. Between each measurement, the plate was shaken and heated as described above and the assay was terminated after 45 hours. Fluorescence measurements for each microtiter plate well were plotted against time and the lag-time (time until an increase in ThT fluorescence was observed) was estimated.
To assess loss of dissolved peptide following 45h incubation, peptide recovery was measured as the ratio between total peak area after incubation vs. before incubation using the RP-UPLC method described below.
Measurement of LagTime and Peptide recovery % using RP-UPLC: RP-UPLC was conducted using an Acquity UPLC BEH C18 1.7 μm (2.1×30 mm) Waters column (Eluent A: 0.1% v/v % TFA in water; Eluent B: 0.1% v/v TFA in acetonitrile/water 4:1) with gradient elution (0 min: 95% A; 2 min: 20% A; 2.3 min: 20% A; 2.4 min: 95% A; 9 min: 95% A) in a flow rate of 0.9 mL/min and a column temperature of 30° C. UV-detection at 215 nm was used to assess the total peptide area.
Samples at pH 4.0 were prepared as described in Example 5 and subjected to the ThT assay as described above.
Samples at pH 6.5 were prepared as described in Example 5 and subjected to the ThT assay as described above.

Series [2] can be described thus: High-Molecular-Weight-Protein (HMWP) formation by SEC-UPLC. The class given is physicochemical. Particulars: increase over two weeks at 37° C. Here is the method:
In order to assess the propensity of CNP compounds to form covalent dimers or oligomers when formulated the High-Molecular-Weight-Protein content of CNP compound formulations at pH 4.0 and 6.5 were determined.
Procedure: The relative amount of covalent HMWP was assessed using SEC-UPLC. SEC-UPLC was conducted using a Waters UPLC Protein BEH SEC column, 125A, 4.6×150 mm, 1.7 μm, with isocratic elution (0.3 M NaCl, 10 mM NaH2PO4 and 5 mM H3PO4, 50% (v/v) isopropanol, pH 2.4) with a flow rate of 0.3 mL/min, a column temperature at 50° C. with UV-detection at 215 nm. The total area of peaks eluting prior to the monomeric main peak was termed HMWP and given on a percentage scale relative to the total peptide peak area.
Results: HMWP Formation Following 2-Weeks Quiescent Incubation at 37° C.: Samples at pH 4.0 were prepared as described in Example 5 and the amount of HMWP was determined as described above. Samples were incubated for two weeks at 37° C. and the amount of HMWP was determined again. The increase in HMWP over two weeks incubation at 37° C. are reported in Table 10 (in case the incubation period deviated from two weeks the increase in HMWP was normalized to two weeks assuming a constant formation rate).
Samples at pH 6.5 were prepared as described in Example 5 and the amount of HMWP was determined as described above. Samples were incubated for two weeks at 37° C. and the amount of HMWP was determined again. The increase in HMWP over two weeks incubation at 37° C. are reported in Table 11 (in case the incubation period deviated from two weeks the increase in HMWP was normalized to two weeks assuming a constant formation rate).

Consider `CC[C@H](C)[C@@H]1NC(=O)[C@H](CCCNC(=N)N)NC(=O)[C@H](CC(=O)O)NC(=O)[C@H](CC(C)C)NC(=O)[C@@H]2CCCN2C(=O)[C@H](CC(C)C)NC(=O)CNC(=O)[C@H](Cc2ccccc2)NC(=O)[C@@H](NC(=O)CNC(=O)[C@H](CO)NC(=O)[C@H](CO)NC(=O)[C@H](CC(C)C)NC(=O)CNC(=O)[C@H](CCCCN)NC(=O)[C@H](CCCCN)NC(=O)[C@H](CCC(N)=O)NC(=O)[C@H](C)NC(=O)CNC(=O)[C@H](CCCCN)NC(=O)[C@H](Cc2ccc(O)cc2)NC(=O)[C@H](CCCCN)NC(=O)[C@H](CCCNC(=N)N)NC(=O)[C@H](C)NC(=O)[C@H](CCC(N)=O)NC(=O)[C@@H]2CCCN2C(=O)[C@H](Cc2c[nH]cn2)NC(=O)[C@H](CCC(=O)O)NC(=O)[C@H](CCC(N)=O)NC(=O)CC[C@H](NC(=O)CC[C@H](NC(=O)CC[C@H](NC(=O)CC[C@H](NC(=O)CCCCCCCCCCCCCCCCC(=O)O)C(=O)O)C(=O)O)C(=O)O)C(=O)O)CSSC[C@@H](C(=O)O)NC(=O)CNC(=O)[C@H](CC(C)C)NC(=O)CNC(=O)[C@H](CO)NC(=O)[C@H](CC(C)C)NC(=O)[C@H](CO)NC(=O)CNC1=O` [compound 1389] ({C18 diacid-γGlu-γGlu-γGlu-γGlu}-QEHPQARKYKGAQKKGLSSGCFGLPLDRIGSLSGLGC-OH; disulfide 21-37), for which, in series [1] (ThT, 37° C., shaking), the “LagTime (h) at pH 4.0” value worked out at 45 h. Besides, the “2-Week HMWP formation at pH 4.0 (%), % relative to total peak area” value in series [2] (pH 4.0) was 1.43%.
`CC[C@H](C)[C@@H]1NC(=O)[C@H](CCCNC(=N)N)NC(=O)[C@H](CC(=O)O)NC(=O)[C@H](CC(C)C)NC(=O)[C@@H]2CCCN2C(=O)[C@H](CC(C)C)NC(=O)CNC(=O)[C@H](Cc2ccccc2)NC(=O)[C@@H](NC(=O)CNC(=O)[C@H](CO)NC(=O)[C@H](CO)NC(=O)[C@H](CC(C)C)NC(=O)CNC(=O)[C@H](CCCCN)NC(=O)[C@H](CCCCN)NC(=O)[C@H](CCC(N)=O)NC(=O)[C@H](C)NC(=O)CNC(=O)[C@H](CCC(=O)O)NC(=O)[C@H](Cc2ccc(O)cc2)NC(=O)COCCOCCNC(=O)COCCOCCNC(=O)COCCOCCNC(=O)COCCOCCNC(=O)CC[C@H](NC(=O)CCCCCCCCCCCCCCCCC(=O)O)C(=O)O)CSSC[C@@H](C(=O)O)NC(=O)CNC(=O)[C@H](CC(C)C)NC(=O)CNC(=O)[C@H](CO)NC(=O)[C@H](CC(C)C)NC(=O)[C@H](CO)NC(=O)CNC1=O` [compound 1392] ({C18 diacid-γGlu-AEEA-AEEA-AEEA-AEEA}-YEGAQKKGLSSGCFGLPLDRIGSLSGLGC-OH; disulfide 13-29): in series [1], the “LagTime (h) at pH 6.5” value is given as 45 h. For the same compound, the “2-Week HMWP formation at pH 6.5 (%), % relative to total peak area” value in series [2] stood at 0.33%.
As to `CC[C@H](C)[C@@H]1NC(=O)[C@H](CCCNC(=N)N)NC(=O)[C@H](CC(=O)O)NC(=O)[C@H](CC(C)C)NC(=O)[C@@H]2CCCN2C(=O)[C@H](CC(C)C)NC(=O)CNC(=O)[C@H](Cc2ccccc2)NC(=O)[C@@H](NC(=O)CNC(=O)[C@H](CCC(N)=O)NC(=O)[C@H](CO)NC(=O)[C@H](CC(C)C)NC(=O)CNC(=O)[C@H](CCCCN)NC(=O)[C@H](CCCCN)NC(=O)[C@H](CCC(N)=O)NC(=O)[C@H](C)NC(=O)CNC(=O)[C@H](CCCCN)NC(=O)[C@H](Cc2ccc(O)cc2)NC(=O)[C@H](CCCCN)NC(=O)[C@H](CCCNC(=N)N)NC(=O)[C@H](C)NC(=O)[C@H](CCC(N)=O)NC(=O)[C@@H]2CCCN2C(=O)[C@H](Cc2c[nH]cn2)NC(=O)[C@H](CCC(=O)O)NC(=O)[C@H](CCC(N)=O)NC(=O)COCCOCCNC(=O)COCCOCCNC(=O)CC[C@H](NC(=O)CC[C@H](NC(=O)CC[C@H](NC(=O)CC[C@H](NC(=O)CC[C@H](NC(=O)CC[C@H](NC(=O)CCCCCCCCCCCCCCCCC(=O)O)C(=O)O)C(=O)O)C(=O)O)C(=O)O)C(=O)O)C(=O)O)CSSC[C@@H](C(=O)O)NC(=O)CNC(=O)[C@H](CC(C)C)NC(=O)CNC(=O)[C@H](CO)NC(=O)[C@H](CC(C)C)NC(=O)[C@H](CO)NC(=O)CNC1=O` [compound 1402] ({C18 diacid-γGlu-γGlu-γGlu-γGlu-γGlu-γGlu-AEEA-AEEA}-QEHPQARKYKGAQKKGLSQGCFGLPLDRIGSLSGLGC-OH; disulfide 21-37), the “LagTime (h) at pH 6.5” value in series [1] stood at 45 h. In series [2], the “2-Week HMWP formation at pH 6.5 (%), % relative to total peak area” value is 2.19%.
For `CC[C@H](C)[C@@H]1NC(=O)[C@H](CCCNC(=N)N)NC(=O)[C@H](CC(=O)O)NC(=O)[C@H](CC(C)C)NC(=O)[C@@H]2CCCN2C(=O)[C@H](CC(C)C)NC(=O)CNC(=O)[C@H](Cc2ccccc2)NC(=O)[C@@H](NC(=O)CNC(=O)[C@H](CCC(N)=O)NC(=O)[C@H](CO)NC(=O)[C@H](CC(C)C)NC(=O)CNC(=O)[C@H](CCCCN)NC(=O)[C@H](CCCCN)NC(=O)[C@H](CCC(N)=O)NC(=O)[C@H](C)NC(=O)CNC(=O)[C@H](CCCCN)NC(=O)[C@H](Cc2ccc(O)cc2)NC(=O)[C@H](CCCCN)NC(=O)[C@H](CCCNC(=N)N)NC(=O)[C@H](C)NC(=O)[C@H](CCC(N)=O)NC(=O)[C@@H]2CCCN2C(=O)[C@H](Cc2c[nH]cn2)NC(=O)[C@H](CCC(=O)O)NC(=O)[C@H](CCC(N)=O)NC(=O)COCCOCCNC(=O)COCCOCCNC(=O)COCCOCCNC(=O)COCCOCCNC(=O)CC[C@H](NC(=O)CC[C@H](NC(=O)CC[C@H](NC(=O)CC[C@H](NC(=O)CC[C@H](NC(=O)CC[C@H](NC(=O)CCCCCCCCCCCCCCCCC(=O)O)C(=O)O)C(=O)O)C(=O)O)C(=O)O)C(=O)O)C(=O)O)CSSC[C@@H](C(=O)O)NC(=O)CNC(=O)[C@H](CC(C)C)NC(=O)CNC(=O)[C@H](CO)NC(=O)[C@H](CC(C)C)NC(=O)[C@H](CO)NC(=O)CNC1=O` [compound 1404] ({C18 diacid-γGlu-γGlu-γGlu-γGlu-γGlu-γGlu-AEEA-AEEA-AEEA-AEEA}-QEHPQARKYKGAQKKGLSQGCFGLPLDRIGSLSGLGC-OH; disulfide 21-37), the “LagTime (h) at pH 6.5” value in series [1] is 45 h. The “2-Week HMWP formation at pH 6.5 (%), % relative to total peak area” value in series [2] is on record as 1.8%.
For the compound `CC[C@H](C)[C@@H]1NC(=O)[C@H](CCCNC(=N)N)NC(=O)[C@H](CC(=O)O)NC(=O)[C@H](CC(C)C)NC(=O)[C@@H]2CCCN2C(=O)[C@H](CC(C)C)NC(=O)CNC(=O)[C@H](Cc2ccccc2)NC(=O)[C@@H](NC(=O)CNC(=O)[C@H](CCC(N)=O)NC(=O)[C@H](CO)NC(=O)[C@H](CC(C)C)NC(=O)CNC(=O)[C@H](CCCCN)NC(=O)[C@H](CCCCN)NC(=O)[C@H](CCC(N)=O)NC(=O)[C@H](C)NC(=O)CNC(=O)[C@H](CCCCN)NC(=O)[C@H](Cc2ccc(O)cc2)NC(=O)[C@H](CCCCN)NC(=O)[C@H](CCCNC(=N)N)NC(=O)[C@H](C)NC(=O)[C@H](CCC(N)=O)NC(=O)[C@@H]2CCCN2C(=O)[C@H](Cc2c[nH]cn2)NC(=O)[C@H](CCC(=O)O)NC(=O)[C@H](CCC(N)=O)NC(=O)COCCOCCNC(=O)COCCOCCNC(=O)COCCOCCNC(=O)COCCOCCNC(=O)CC[C@H](NC(=O)CC[C@H](NC(=O)CC[C@H](NC(=O)CC[C@H](NC(=O)CC[C@H](NC(=O)CCCCCCCCCCCCCCCCC(=O)O)C(=O)O)C(=O)O)C(=O)O)C(=O)O)C(=O)O)CSSC[C@@H](C(=O)O)NC(=O)CNC(=O)[C@H](CC(C)C)NC(=O)CNC(=O)[C@H](CO)NC(=O)[C@H](CC(C)C)NC(=O)[C@H](CO)NC(=O)CNC1=O` [compound 1406] ({C18 diacid-γGlu-γGlu-γGlu-γGlu-γGlu-AEEA-AEEA-AEEA-AEEA}-QEHPQARKYKGAQKKGLSQGCFGLPLDRIGSLSGLGC-OH; disulfide 21-37), the “LagTime (h) at pH 6.5” value in series [1] was 45 h. Also, in series [2], the “2-Week HMWP formation at pH 6.5 (%), % relative to total peak area” value amounted to 2.77%.
